Results taken from patent US9403811B2, “Crystalline forms of azilsartan medoxomil potassium and preparation and uses thereof” (SUNSHINE LAKE PHARMA CO., LTD., priority 2012, dated 2016).

Tests used:
[1] = Solubility test; format: physicochemical; settings: for Solubility: THF (volume of solvent in which the solid dissolved): 0.50 g solid added to THF at room temperature; for Solubility: THF (volume of solvent in which the solid dissolved) / Solubility: Acetone (volume of solvent in which the solid dissolved) / Solubility: Ethanol (volume of solvent in which the solid dissolved) / Solubility: Ethyl acetate (volume of solvent in which the solid dissolved) / Solubility: Methanol (volume of solvent in which the solid dissolved): shaking 30 seconds every 5 minutes, observed with eyes; for Solubility: Acetone (volume of solvent in which the solid dissolved): 0.50 g solid added to acetone at room temperature; for Solubility: Ethanol (volume of solvent in which the solid dissolved): 0.50 g solid added to ethanol at room temperature; for Solubility: Ethyl acetate (volume of solvent in which the solid dissolved): 0.50 g solid added to ethyl acetate at room temperature; for Solubility: Methanol (volume of solvent in which the solid dissolved): 0.50 g solid added to methanol at room temperature; for Solubility: Result: 0.50 g solid in the listed solvent volumes, room temperature, dissolved = no solid detected by human eyes
Description: The crystalline form C, D, F, H, J and L of azilsartan medoxomil potassium (0.50 g) was added to the solvent at room temperature. […] The solid was deemed as dissolved when no solid was detected in the mixture by human eyes.
The solubility data of crystalline forms C, D, F, H, J and L of azilsartan medoxomil potassium are as shown below.

[2] = Stability test; format: physicochemical
Description: The stability test of the crystalline form C was conducted under the following conditions:
Storage condition 1: stored under conditions of 40° C./RH75% in a sealed state for 3 and 6 months. […] During the whole test period, no change in total amount of impurities was recognized as compared with that before the beginning of the test.
Storage condition 2: stored under conditions of 40° C./RH75% in an unsealed state for 1 and 3 months.

Row | Structure (SMILES) | Solubility: THF (volume of solvent in which the solid dissolved) [1] | Solubility: Acetone (volume of solvent in which the solid dissolved) [1] [mL] | Solubility: Ethanol (volume of solvent in which the solid dissolved) [1] | Solubility: Ethyl acetate (volume of solvent in which the solid dissolved) [1] [mL] | Solubility: Methanol (volume of solvent in which the solid dissolved) [1] | Solubility: Result [1] | conversion of the crystalline form into other polymorphs ([2]; storage condition 1: 40° C./RH75%, sealed state, after six months) | change in total amount of impurities compared with before the beginning of the test ([2]; storage condition 1: 40° C./RH75%, sealed state, whole test period (3 and 6 months)) | total amount of impurities compared with before the beginning of the test ([2]; storage condition 2: 40° C./RH75%, unsealed state, 1 and 3 months) | conversion of the crystalline form into other polymorphs ([2]; storage condition 2: 40° C./RH75%, unsealed state, after three months)
1 | CCOc1nc2cccc(C(=O)OCc3oc(=O)oc3C)c2n1Cc1ccc(-c2ccccc2-c2noc(=O)[n-]2)cc1.[K+] [Form C, azilsartan medoxomil potassium] | 13 mL | 8 | 6 mL | 10 | 5 mL | dissolved | could not be confirmed | no change | increased | could not be confirmed
2 | CCOc1nc2cccc(C(=O)OCc3oc(=O)oc3C)c2n1Cc1ccc(-c2ccccc2-c2noc(=O)[n-]2)cc1.[K+] [Form D, azilsartan medoxomil potassium] | 16.5 ml^ | 9 | 5 mL | 12 | 4 mL | dissolved |  |  |  | 
3 | CCOc1nc2cccc(C(=O)OCc3oc(=O)oc3C)c2n1Cc1ccc(-c2ccccc2-c2noc(=O)[n-]2)cc1.[K+] [Form F, azilsartan medoxomil potassium] | 15 mL | 12 | 6 mL | 16 | 4.5 ml^ | dissolved |  |  |  | 
4 | CCOc1nc2cccc(C(=O)OCc3oc(=O)oc3C)c2n1Cc1ccc(-c2ccccc2-c2noc(=O)[n-]2)cc1.[K+] [Form H, azilsartan medoxomil potassium] | 14 mL | 10 | 8 mL | 13 | 6 mL | dissolved |  |  |  | 
5 | CCOc1nc2cccc(C(=O)OCc3oc(=O)oc3C)c2n1Cc1ccc(-c2ccccc2-c2noc(=O)[n-]2)cc1.[K+] [Form J, azilsartan medoxomil potassium] | 12 mL | 8 | 5.5 ml^ | 11 | 4 mL | dissolved |  |  |  | 
6 | CCOc1nc2cccc(C(=O)OCc3oc(=O)oc3C)c2n1Cc1ccc(-c2ccccc2-c2noc(=O)[n-]2)cc1.[K+] [Form L, azilsartan medoxomil potassium] | 17 mL | 11 | 6 mL | 14 | 5 mL | dissolved |  |  |  | 
